Measurements reported in US20250223281A1, “ANTIDIABETIC COMPOUNDS AND COMPOSITIONS” (REZUBIO PHARMACEUTICALS CO., LTD, priority 2022, published 2025).

Molecular target: T1, GPR40 (Homo sapiens, UniProt O14842)
T1 construct: expressed in transfected cells; host or cells: HEK293 cells stably expressing GPR40 (Hygromycin selection)
Assay: IP1 accumulation assay in HEK293 cells stably expressing GPR40
Type: cell-based
Procedure, shortened: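 HEK293 cells stably expressing human GPR40 were incubated with compounds (10-point, 3-fold dilution series) for 2 h at 37 °C, then IP1 was detected by HTRF (665/615 nm ratio). Effect was normalised to DMSO blank and AMG-1638 as 100%, and EC50 was derived from dose curves.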

[1] = IP1 accumulation, HEK293 cells stably expressing GPR40, 2 hours at 37° C., % effect relative to AMG-1638, table of Biological Example 1
[2] = Table A-8 (additional examples), obtained by methods of Biological Example 1

T1 sequence (O14842 whole entry): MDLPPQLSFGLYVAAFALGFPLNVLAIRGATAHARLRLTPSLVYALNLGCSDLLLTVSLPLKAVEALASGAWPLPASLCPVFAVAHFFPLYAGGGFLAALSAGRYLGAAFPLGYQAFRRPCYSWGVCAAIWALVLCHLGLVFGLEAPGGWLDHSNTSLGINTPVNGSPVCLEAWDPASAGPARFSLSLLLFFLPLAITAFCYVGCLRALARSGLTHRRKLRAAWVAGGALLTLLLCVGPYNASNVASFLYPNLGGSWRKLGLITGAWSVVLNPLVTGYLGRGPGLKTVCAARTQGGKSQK

EC50 [1]	EC50 [2]	Compound
> 10 µM	> 10 µM	COc1ccc(F)c(-c2ccc(COc3cccc([C@@H](CC(=O)O)C4CC4)c3)cc2CC(C)(C)Cn2cc(COCCOCCOCCOCC(=O)NCCN(CCC(=O)NCCN)CCC(=O)NCCN)nn2)c1 [Example 166]
> 10 µM	> 10 µM	COc1ccc(F)c(-c2ccc(COc3cccc([C@@H](CC(=O)O)C4CC4)c3)cc2CC(C)(C)Cn2cc(COCCOCCOCC(=O)NCC[N+](C)(CCC(=O)NCCN)CCC(=O)NCCN)nn2)c1 [Example 168]
0.2 µM	> 0.2 µM	COc1ccc(F)c(-c2ccc(COc3cccc([C@@H](CC(=O)O)C4CC4)c3)cc2CC(C)(C)Cn2cc(COCCOCCOCCOCCOCC(=O)NCC[N+](C)(CCC(=O)NCCN)CCC(=O)NCCN)nn2)c1 [Example 170]
> 10 µM	> 10 µM	C[C@H](C(=O)O)[C@H](c1ccc2c(c1)O[C@@H](C1CCN(Cc3cc(-n4cc(COCCOCCOCCOCC(=O)NCC[N+](C)(CCC(=O)NCCN)CCC(=O)NCCN)nn4)ccc3OC(F)(F)F)CC1)CC2)C1CC1 [Example 175]
0.05 µM		COc1ccc(F)c(-n2nnc(COc3cccc([C@@H](CC(=O)O)C4CC4)c3)c2CC(C)(C)Cn2cc(CCCCCCCCCCCCCCCC(=O)NCCN(CCC(=O)NCCN)CCC(=O)NCCN)nn2)c1 [Example 179]

Second part, the molecule before the results:

Compound	EC50 [1]	EC50 [2]
COc1ccc(F)c(-c2ccc(COc3cccc([C@@H](CC(=O)O)C4CC4)c3)cc2CC(C)(C)Cn2cc(COCCOCCOCCOCCOCC(=O)NCCN(CCC(=O)NCCN)CCC(=O)NCCN)nn2)c1 [Example 167]	> 10 µM	> 10 µM
COc1ccc(F)c(-c2ccc(COc3cccc([C@@H](CC(=O)O)C4CC4)c3)cc2CC(C)(C)Cn2cc(COCCOCCOCCOCC(=O)NCC[N+](C)(CCC(=O)NCCN)CCC(=O)NCCN)nn2)c1 [Example 169]	> 10 µM	> 10 µM
C[C@H](C(=O)O)[C@H](c1ccc2c(c1)O[C@@H](C1CCN(Cc3cc(-n4cc(COCCOCCOCC(=O)NCCN(CCC(=O)NCCN)CCC(=O)NCCN)nn4)ccc3OC(F)(F)F)CC1)CC2)C1CC1 [Example 171]	> 10 µM	> 10 µM
C[C@H](C(=O)O)[C@H](c1ccc2c(c1)O[C@@H](C1CCN(Cc3cc(-n4cc(COCCOCCOCCOCC(=O)NCCN(CCC(=O)NCCN)CCC(=O)NCCN)nn4)ccc3OC(F)(F)F)CC1)CC2)C1CC1 [Example 172]	5.24 µM	5.24 µM
C[C@H](C(=O)O)[C@H](c1ccc2c(c1)O[C@@H](C1CCN(Cc3cc(-n4cc(COCCOCCOCCOCCOCC(=O)NCCN(CCC(=O)NCCN)CCC(=O)NCCN)nn4)ccc3OC(F)(F)F)CC1)CC2)C1CC1 [Example 173]	> 10 µM	> 10 µM
C[C@H](C(=O)O)[C@H](c1ccc2c(c1)O[C@@H](C1CCN(Cc3cc(-n4cc(COCCOCCOCC(=O)NCC[N+](C)(CCC(=O)NCCN)CCC(=O)NCCN)nn4)ccc3OC(F)(F)F)CC1)CC2)C1CC1 [Example 174]	> 10 µM	> 10 µM
C[C@H](C(=O)O)[C@H](c1ccc2c(c1)O[C@@H](C1CCN(Cc3cc(-n4cc(COCCOCCOCCOCCOCC(=O)NCC[N+](C)(CCC(=O)NCCN)CCC(=O)NCCN)nn4)ccc3OC(F)(F)F)CC1)CC2)C1CC1 [Example 176]	> 10 µM	> 10 µM
COc1ccc(C(=O)N(CC(C)(C)CCn2cc(CCCCCCCCCCCCCCC(=O)NCC[N+](C)(CCC(=O)NCCN)CCC(=O)NCCN)nn2)c2cccc(C)n2)c(N2CCC(c3cc4ccc([C@@H](CC(=O)O)C5CC5)cc4o3)CC2)c1 [Example 177]	8e-05 µM	
COc1ccc(C(=O)N(CC(C)(C)CCn2cc(COCCOCCOCCOCCOCC(=O)NCC[N+](C)(CCC(=O)NCCN)CCC(=O)NCCN)nn2)c2cccc(C)n2)c(N2CCC(c3cc4ccc([C@@H](CC(=O)O)C5CC5)cc4o3)CC2)c1 [Example 178]	2.03 µM	
COc1ccc(F)c(-n2nnc(COc3cccc([C@@H](CC(=O)O)C4CC4)c3)c2CC(C)(C)Cn2cc(COCCOCCOCCOCCOCC(=O)NCCN(CCC(=O)NCCN)CCC(=O)NCCN)nn2)c1 [Example 180]	> 10 µM	
